According to ChEMBL document CHEMBL1201862, “PubChem BioAssay data set” (2004):
Several values for one entry are separate records, joined by “and”; a condition that tells them apart may be missing. Identical values can stand only once.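 How tested: cells in 96-well plates exposed to compound for 48 hours at five concentrations. The concentration for 50% growth inhibition is given as GI50.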 Activity calls are given as the source filed them. No stated cut-off is given here; in the data, active = GI50 up to about 1.1 µM and inactive = higher.

Legend:
Experiment in all cases: growth of human tumour cells (NCI), 48 h
LOX IMVI = test system: LOX IMVI
MCF7 = test system: MCF7
A549 = test system: A549
MOLT-4 = test system: MOLT-4
DU-145 = test system: DU-145
SF-539 = test system: SF-539
BT-549 = test system: BT-549
HCC 2998 = test system: HCC 2998
KM12 = test system: KM12
OVCAR-5 = test system: OVCAR-5
SNB-75 = test system: SNB-75
UACC-62 = test system: UACC-62
UO-31 = test system: UO-31
786-0 = test system: 786-0
SF-295 = test system: SF-295
M14 = test system: M14
UACC-257 = test system: UACC-257
SK-MEL-28 = test system: SK-MEL-28
NCI-H522 = test system: NCI-H522
SW-620 = test system: SW-620

Measured: GI50

O=C(O)c1ccccc1.[Ag]
inactive: LOX IMVI 11.1 µM | MCF7 13.3 µM | A549 6.81 µM | MOLT-4 2.55 µM | DU-145 17.5 µM | SF-539 21.3 µM | BT-549 27.2 µM | HCC 2998 19.2 µM | KM12 19.5 µM | OVCAR-5 22.9 µM | SNB-75 3.36 µM | UACC-62 18.1 µM | UO-31 2.13 µM | 786-0 17.3 µM | SF-295 64 µM | M14 19.5 µM | UACC-257 5.11 µM | SK-MEL-28 16.9 µM | NCI-H522 1.5 µM

Cc1ccc(CC(Cc2ccc(C)cc2C(=O)O)C(=O)O)cc1 (stereo not drawn)
inactive: LOX IMVI > 100 µM | MCF7 > 100 µM | A549 > 100 µM | MOLT-4 > 100 µM | DU-145 > 100 µM | SF-539 > 100 µM | BT-549 > 100 µM | HCC 2998 > 100 µM | SW-620 > 100 µM | KM12 > 100 µM | OVCAR-5 > 100 µM | SNB-75 > 100 µM | UACC-62 43 µM | UO-31 > 100 µM | 786-0 > 100 µM | SF-295 > 100 µM | M14 > 100 µM | UACC-257 > 100 µM | SK-MEL-28 > 100 µM | NCI-H522 > 100 µM

CC1NC(=O)C2Cc3ccc(O)c(c3)Oc3ccc(cc3)C(O)C(C(=O)N2C)N(C)C(=O)C(C)NC(=O)C(Cc2ccc(O)cc2)N(C)C(=O)C(C)NC1=O (stereo not drawn)
inactive: LOX IMVI 5.43 µM | MCF7 13.7 µM | A549 41 µM | MOLT-4 19.4 µM | DU-145 32.4 µM | SF-539 6.71 µM | BT-549 24.6 µM | HCC 2998 22.2 µM | SW-620 23.4 µM | KM12 9.68 µM | OVCAR-5 42.6 µM | SNB-75 3.67 µM | UACC-62 19.5 µM | UO-31 > 100 µM | 786-0 38 µM | SF-295 > 100 µM | M14 63.2 µM | UACC-257 13.6 µM | SK-MEL-28 19.2 µM | NCI-H522 9.44 µM

CC(=O)OC1COC(n2c(N)c(C#N)c(-c3ccccc3)c(C#N)c2=S)C(OC(C)=O)C1OC(C)=O (stereo not drawn)
inactive: LOX IMVI 25.2 µM and 27.6 µM | MCF7 34.4 µM and 29.9 µM | A549 71 µM and 85.9 µM | MOLT-4 24.6 µM and 24.3 µM | DU-145 47.9 µM and 38.4 µM | SF-539 40.2 µM and 32.4 µM | BT-549 25.6 µM and 22.8 µM | HCC 2998 25.6 µM and 27.4 µM | SW-620 56.2 µM and 64.3 µM | KM12 67 µM and 40.7 µM | OVCAR-5 46.5 µM and 89.1 µM | SNB-75 43.4 µM and 24.4 µM | UACC-62 33 µM and 35.1 µM | UO-31 23.1 µM and 36.5 µM | 786-0 36.9 µM and 39.3 µM | SF-295 > 100 µM | M14 70.8 µM and 64.1 µM | UACC-257 57.7 µM and 80.9 µM | SK-MEL-28 55.7 µM and 36.6 µM | NCI-H522 38.5 µM and 40.8 µM

COc1cc(OC)c2nc(C)c(CCCl)c(Cl)c2c1
inactive: LOX IMVI > 100 µM | MCF7 > 100 µM | A549 > 100 µM | MOLT-4 > 100 µM | DU-145 > 100 µM | SF-539 > 100 µM | BT-549 > 100 µM | HCC 2998 > 100 µM | SW-620 > 100 µM | KM12 > 100 µM | OVCAR-5 > 100 µM | SNB-75 > 100 µM | UACC-62 > 100 µM | UO-31 > 100 µM | 786-0 > 100 µM | SF-295 > 100 µM | M14 > 100 µM | UACC-257 > 100 µM | SK-MEL-28 > 100 µM | NCI-H522 > 100 µM

C\C(=N/N=C1/C(=C\N(C)C)C(=O)NC(=O)N1C)c1ccc(Cl)cc1
inactive: LOX IMVI 58.2 µM | MCF7 > 100 µM | A549 87.7 µM | MOLT-4 > 100 µM | DU-145 > 100 µM | SF-539 > 100 µM | BT-549 > 100 µM | HCC 2998 > 100 µM | SW-620 89.7 µM | KM12 44.6 µM | OVCAR-5 69.2 µM | SNB-75 32.6 µM | UACC-62 > 100 µM | UO-31 > 100 µM | 786-0 > 100 µM | SF-295 54.6 µM | M14 43.2 µM | UACC-257 > 100 µM | SK-MEL-28 > 100 µM | NCI-H522 62.2 µM

Nc1ccn(CC(O)c2cc3ccccc3[nH]2)c(=O)n1 (stereo not drawn)
inactive: LOX IMVI > 100 µM | MCF7 > 100 µM | A549 > 100 µM | MOLT-4 > 100 µM | DU-145 > 100 µM | SF-539 > 100 µM | BT-549 > 100 µM | HCC 2998 > 100 µM | SW-620 > 100 µM | KM12 > 100 µM | OVCAR-5 > 100 µM | SNB-75 > 100 µM | UACC-62 > 100 µM | UO-31 > 100 µM | 786-0 > 100 µM | SF-295 > 100 µM | M14 > 100 µM | UACC-257 > 100 µM | SK-MEL-28 > 100 µM | NCI-H522 > 100 µM

COc1ccc(C(C#N)NC23CC4CC(CC(C4)C2)C3)cc1OC (stereo not drawn)
inactive: LOX IMVI > 100 µM | MCF7 > 100 µM | A549 > 100 µM | MOLT-4 > 100 µM | DU-145 > 100 µM | SF-539 > 100 µM | BT-549 > 100 µM | HCC 2998 > 100 µM | SW-620 > 100 µM | KM12 > 100 µM | OVCAR-5 > 100 µM | SNB-75 > 100 µM | UACC-62 > 100 µM | UO-31 84.3 µM | 786-0 > 100 µM | SF-295 > 100 µM | M14 > 100 µM | UACC-257 > 100 µM | SK-MEL-28 > 100 µM | NCI-H522 > 100 µM

CC(=O)c1c(=O)n(-c2ccc(C)cc2)c(O)c2c(N)n[nH]c12
inactive: LOX IMVI > 100 µM | MCF7 > 100 µM | A549 > 100 µM | MOLT-4 > 100 µM | DU-145 > 100 µM | SF-539 > 100 µM | BT-549 > 100 µM | HCC 2998 > 100 µM | SW-620 > 100 µM | KM12 > 100 µM | OVCAR-5 > 100 µM | SNB-75 > 100 µM | UACC-62 > 100 µM | UO-31 60 µM | 786-0 > 100 µM | M14 > 100 µM | UACC-257 > 100 µM | SK-MEL-28 > 100 µM | NCI-H522 > 100 µM
